According to patent US9023817B2, “Use of albiflorin for anti-depression” (priority 2009, dated 2015):

Legend:
[1] = tested on: rats with chronic stress induced depression model; assay: Consumption of 1% aqueous sucrose, chronic stress induced depression; assay type: in vivo, SD rats; details: 1% aqueous sucrose for 1 hour
Method: The gavage was carried out along with the model establishment, once a day, for 21 days. […] Referring to the methods in the literature (Xu Jing, Li Xiaoqiu, Establishment and evaluation of the model of chronic stress induced depression, Chinese Journal of Behavioral Medical Science, 2003, 12(1): 14 16), the model was established (i.e., establishing animal model of anti-depression by means of CUMS): the foot electric shock (voltage: […] (5 minutes), drying at 45° C. […] All parameters to be tested were expressed as Mean±SD (X±s), and tested by means of analysis of variance (ANOVA) in SPSS 12.0 software (purchased from SPSS Inc., USA), p<0.05 means that there was a significant difference.

ICR mice [2] = assay: Tail suspension test in mice, intraperitoneal injection; assay type: in vivo; details: 7 mg/kg intraperitoneal injection, 1 day; 30 min after administration
Method: Normal mice were randomly divided into three groups (n=20 for each group) according to their weights, i.e. model group, high-dose group (14 mg/kg) and medium-dose group (7 mg/kg) of Albiflorin. Intraperitoneal injection group was subjected to the administration for 1 day. Each group was administered at a dose of 0.2 ml/10 g weight.
The test of intraperitoneal injection group was performed at 30 min after the administration. The tail of mouse 2 cm away from the tip of the tail) was fixed to the connection line of 100 g tension transducer with adhesive plaster, and the mouse was hung upside down, with the head about 15 cm away from the experimental bench, two animals isolated from each other by a cardboard were simultaneously tested for each time. The transducer was connected into the Medlab bio-signals acquisition and processing system, after 2 mins of adaption, the result over 4 mins was recorded, and the immobility situation was converted into the time(s).
The experimental data was expressed as X±SD, and the analysis of variance for the experimental results was carried out by SPSS 11.5 statistical software (purchased from SPSS Inc., USA).

[3] = tested on: noradrenalin in the brain of rat; assay: Noradrenalin in the brain of rat with chronic stress (HPLC-ECD, prefrontal cortex); assay type: in vivo, SD rats; details: 3.5 mg/kg/d gavage for 21 days
Method: (§1) After being fed without water for 24 hours, SD rats were administered with 1% aqueous sucrose, the consumption of aqueous sucrose was measured for 1 hour. The rats were randomly divided into six groups (n=12 for each group) according to the consumptions of aqueous sucrose, i.e. vehicle group, model group, positive control group of Fluoroxetine Hydrochloride (2.5 mg/kg/d), high-dose group (14 mg/kg/day), medium-dose group (7 mg/kg/day), and low-dose group (3.5 mg/kg/day) of Albiflorin. The gavage was carried out along with the model establishment, once a day, for 21 days. Each group was administered at a dose of 1.0 ml/100 g weight, and weighed once a week.
(§2) The rats were fed at 6/cage as vehicle group, with normal diets and drinking water, and without any stimulation.
(§3) The rats were fed at 1/cage as the other five groups, and subjected to unpredicted stress stimulations for 21 days, including: swimming in ice water, drying, tail nipping, wet feeding, reversed day and night, fasting, water deprivation and the like. One kind of stimulations was randomly given for each day.
(§4) The animal was executed by decapitation, the brain of it was quickly stripped on the ice, the prefrontal cortex was taken out, then placed into frozen tissue tube after weighting, rapidly frozen with liquid nitrogen, and placed into the refrigerator at −70° C. until test.

[4] = tested on: rats with chronic stress induced depression model; assay: Open-field test, chronic stress induced depression; assay type: in vivo, SD rats; details: 3.5 mg/kg/day gavage for 21 days; 3 minutes
Method: The gavage was carried out along with the model establishment, once a day, for 21 days. […] Referring to the methods in the literature (Xu Jing, Li Xiaoqiu, Establishment and evaluation of the model of chronic stress induced depression, Chinese Journal of Behavioral Medical Science, 2003, 12(1): 14 16), the model was established (i.e., establishing animal model of anti-depression by means of CUMS): the foot electric shock (voltage: […] (5 minutes), drying at 45° C. (5 minutes), tail nipping (1 min), wet feeding (wet mat), reversed day and night (24 hours), fasting (24 hours), water deprivation (24 hours) were randomly scheduled within 21 days, one kind of stimulations was given for each day, except for the animals of vehicle group, the others were separately caged with free diet, at the room temperature of (24±1)° C., with the relative humidity of (60±10)%. The open-field device was of 40 cm in height, 80 cm in both length and width, without cap, the inner walls and the bottom of the device are black, and the bottom was divided into 25 squares with equal area. The numbers of squares that the animals pass through were designated as the score of horizontal movement, and the numbers of standing (with the forelegs above 1 cm away from the ground) were designated as the score of vertical movement. Each animal was measured for one time, 3 minutes for each measurement. All parameters to be tested were expressed as Mean±SD (X±s), and tested by means of analysis of variance (ANOVA) in SPSS 12.0 software (purchased from SPSS Inc., USA), p<0.05 means that there was a significant difference.

ICR mice [5] = assay: Tail suspension test in mice, administration by gavage; assay type: in vivo; details: 3.5 mg/kg/d by gavage for two days; 1 h after administration; over 4 min
Method: In the second day, 1 h after the administration, the tail of mouse (2 cm away from the tip of the tail) was fixed to the connection line of 100 g tension transducer by adhesive plaster, and the mouse was hung upside down, with the head about 15 cm away from the experimental bench, two animals isolated from each other by a cardboard were simultaneously tested for each time. The transducer was connected to the Medlab bio-signals acquisition and processing system, after 2 min of adaption, the result over 4 min was recorded, and the immobility situation was converted into the time(s). The experimental data were expressed as X±SD, and the analysis of variance for the experimental results was carried out by SPSS 11.5 statistical software (purchased from SPSS Inc., USA).

[6] = tested on: serotonin in the brain of rat; assay: Serotonin in the brain of rat with chronic stress (HPLC-ECD, prefrontal cortex); assay type: in vivo, SD rats; details: 3.5 mg/kg/d gavage for 21 days
Method: as §1, §2, §3, §4

**Q.** C[C@]12C[C@@H](O)[C@@H]3C[C@@]1(O[C@@H]1O[C@H](CO)[C@@H](O)[C@H](O)[C@H]1O)[C@@]3(COC(=O)c1ccccc1)C(=O)O2 [Albiflorin] was tested. Which “comsumption of aqeous sucrose” value ([1]; 3.5 mg/kg/day gavage, Day 0) did it give?
**A.** Its value is 12.75 ± 5.24 mL.

**Q.** And the “comsumption of aqeous sucrose” value ([1]; 3.5 mg/kg/day gavage, Day 7)?
**A.** The value was 12.67 ± 5.42 mL.

**Q.** And the “comsumption of aqeous sucrose” value ([1]; 3.5 mg/kg/day gavage, Day 14)?
**A.** The value was 11.83 ± 5.15 mL.

**Q.** What about the “comsumption of aqeous sucrose” value ([1]; 3.5 mg/kg/day gavage, Day 21) of the same compound?
**A.** Its value is 11.92 ± 3.96 mL.

**Q.** What about the “comsumption of aqeous sucrose” value ([1]; 7 mg/kg/day gavage, Day 0) of the same compound?
**A.** The value was 12.67 ± 5.37 mL.

**Q.** What about the “comsumption of aqeous sucrose” value ([1]; 7 mg/kg/day gavage, Day 7) of the same compound?
**A.** The value was 13.42 ± 5.37 mL.

**Q.** And the “comsumption of aqeous sucrose” value ([1]; 14 mg/kg/day gavage, Day 0)?
**A.** Its value is 12.50 ± 5.32 mL.

**Q.** What about the “comsumption of aqeous sucrose” value ([1]; 14 mg/kg/day gavage, Day 7) of the same compound?
**A.** The value was 14.08 ± 3.65 mL.

**Q.** And the “comsumption of aqeous sucrose” value ([1]; 14 mg/kg/day gavage, Day 14)?
**A.** The value was 13.00 ± 3.74 mL.

**Q.** And the “Immobility Time” value (ICR mice [2])?
**A.** Its value is 82.350 ± 52.5132 s.

**Q.** And the NA [3]?
**A.** Its NA is 174.59 ± 60.35.

**Q.** What about the “Score of horizontal movement” value [4] of the same compound?
**A.** Its value is 21.42 ± 20.38.

**Q.** And the “Score of vertical movement” value [4]?
**A.** Its value is 4.67 ± 6.87.

**Q.** What about the “Immobility Time” value (ICR mice [5]) of the same compound?
**A.** The value was 83.82 ± 35.099 s.

**Q.** And the 5-HT [6]?
**A.** Its 5-HT is 188.43 ± 67.91.
